{"source": "patent USRE39634E1", "about": "“Bisarylimidazoly fatty acid amide hydrolase inhibitors” (Bristol-Myers Squibb Company, priority 2001, dated 2007)"}
{"molecular_target": "T1, human FAAH (Homo sapiens, UniProt O00519)", "T1 construct": "expressed in transfected cells; host or cells: H4 cells stably transfected with human FAAH (Geneticin selection); crude membrane homogenates", "T1 sequence (O00519 1-579)": "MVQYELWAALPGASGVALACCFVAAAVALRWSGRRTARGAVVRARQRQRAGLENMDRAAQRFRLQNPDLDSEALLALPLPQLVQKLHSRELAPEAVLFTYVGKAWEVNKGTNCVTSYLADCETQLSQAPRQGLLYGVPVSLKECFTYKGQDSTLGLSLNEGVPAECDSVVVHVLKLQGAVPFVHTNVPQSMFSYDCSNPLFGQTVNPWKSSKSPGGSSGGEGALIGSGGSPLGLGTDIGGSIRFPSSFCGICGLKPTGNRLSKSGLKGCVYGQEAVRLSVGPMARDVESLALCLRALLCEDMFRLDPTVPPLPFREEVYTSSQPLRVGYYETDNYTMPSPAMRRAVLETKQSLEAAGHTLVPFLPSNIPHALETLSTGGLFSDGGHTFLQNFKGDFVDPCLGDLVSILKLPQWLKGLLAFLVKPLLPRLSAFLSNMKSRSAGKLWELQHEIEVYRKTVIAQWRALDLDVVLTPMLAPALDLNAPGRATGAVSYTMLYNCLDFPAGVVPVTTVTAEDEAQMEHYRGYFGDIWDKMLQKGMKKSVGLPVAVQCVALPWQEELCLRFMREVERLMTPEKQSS", "assay": "Determination of FAAH activity (membrane homogenates of H4-FAAH cells, [3H]-anandamide hydrolysis)", "format": "biochemical", "settings": "transfected human FAAH, H4-FAAH cell membranes, 10 μM anandamide, room temperature, one hour", "procedure": "Homogenates of crude membranes were prepared from H4 cells that express transfected human FAAH (H4-FAAH cells). Briefly, cells were grown in DMEM supplemented with 10% FBS and Geneticin at a final concentration of 500 μg/ml (Gibco BRL, Rockville, Md.). Confluent cultures of H4-FAAH cells were rinsed twice with phosphate-buffered saline [138 mM NaCl, 4.1 mM KCl, 5.1 mM Na2PO4, 1.5 mM KH2PO4 (pH 7.5), 37° C.] and incubated for 5-10 min. at 4° C. in lysis buffer [1 mM sodium bicarbonate]. Cells were transferred from plates to polypropylene tubes (16×100 mm), homogenized and centrifuged at 32,000×g for 30 min. Pellets were resuspended by homogenization in lysis buffer and centrifuged at 32,000×g for 30 min. Pellets were resuspended in lysis buffer (15-20 μg protein/ml) then stored at −80° C. until needed. On the day of an experiment, membranes were diluted to 2.67 μg protein/ml in 125 mM Tris-Cl, pH 9.0\nActivity of FAAH was measured using a modification of the method described by Omeir et al., 1995 (Life Sci 56:1999, 1995). Membrane homogenates (240 ng protein) were incubated at room temperature for one hour with 1.67 nM anandamide [ethanolamine 1-^3H] (American Radiolabeled Chemical Inc., St Louis, Mo.) and 10 μM anandamide (Sigma/RBI, St. Louis, Mo.) in the absence and presence of inhibitors. The reaction was stopped by the addition of 1 volume of a solution of methanol and dichloroethane (1:1). The mixture was shaken and then centrifuged at 1000×g for 15 min. to separate the aqueous and organic phases. An aliquot of the aqueous phase, containing [^3H]-ethanolamine was withdrawn and counted by scintillation spectroscopy. Data were expressed as the percentage of [^3H]-ethanolamine formed versus vehicle, after subtraction of the background radioactivity determined in the presence of 10 μM arachidonyl trifluoromethyl ketone (ATFMK), an inhibitor of FAAH. IC50 values were determined using a four-parameter logistic equation for dose-response curves.", "units": {"IC50": "nM"}}
{"smiles": "CCc1nc(-c2ccccc2)c(-c2ccccc2)n1CCCCCCNC(=O)OC(C)(C)C", "note": "[Example 2, [6-(2-Ethyl-4,5-diphenyl-imidazol-1-yl)-hexyl]-carbamic acid tert-butyl ester]", "IC50": "1000 to 10000"}
{"smiles": "CCc1nc(-c2ccccc2)c(-c2ccccc2)n1CCCCCCNC(=O)OC(C)CC", "note": "(centres unmarked) [Example 3]", "IC50": "1000 to 10000"}
{"smiles": "Cc1nc(-c2ccccc2)c(-c2ccccc2)n1CCCCCCNC(=O)OCc1ccccc1", "note": "[Example 5, [6-(2-Methyl-4,5-diphenyl-imidazol-1-yl)-hexyl]-carbamic acid benzyl ester]", "IC50": "1000 to 10000"}
{"smiles": "CC(C)=NOC(=O)NCCCCCCn1c(C)nc(-c2ccccc2)c1-c1ccccc1", "note": "[Example 6, 2-Propanone,O-[6-(2-methyl-4,5-diphenyl-1H-imidazol-1-yl)hexylaminocarbonyl]oxime]", "IC50": "10 to 100"}
{"smiles": "COC(=O)NCCCCCCn1c(C)nc(-c2ccccc2)c1-c1ccccc1", "note": "[Example 8, [6-(2-Methyl-4,5-diphenyl-imidazol-1-yl)-hexyl]-carbamic acid methyl ester]", "IC50": "100 to 1000"}
{"smiles": "Cc1nc(-c2ccccc2)c(-c2ccccc2)n1CCCCCCNC(=O)Oc1ccccc1", "note": "[Example 9]", "IC50": "< 10"}
{"smiles": "Cc1nc(-c2ccccc2)c(-c2ccccc2)n1CCCCCCNC(=O)Oc1ccc(F)cc1", "note": "[Example 10, [6-(2-Methyl-4,5-diphenyl-imidazol-1-yl)-hexyl]-carbamic acid 4-fluoro-phenyl ester]", "IC50": "< 10"}
{"smiles": "Cc1nc(-c2ccccc2)c(-c2ccccc2)n1CCCCCCNC(=O)Oc1ccc(F)cc1F", "note": "[Example 11, [6-(2-Methyl-4,5-diphenyl-imidazol-1-yl)-hexyl]-carbamic acid 2,4-difluoro-phenyl ester]", "IC50": "< 10"}
{"smiles": "Cc1nc(-c2ccccc2)c(-c2ccccc2)n1CCCCCCNC(=O)Oc1ccc(Cl)cc1", "note": "[Example 12, [6-(2-Methyl-4,5-diphenyl-imidazol-1-yl)-hexyl]-carbamic acid 4-chloro-phenyl ester]", "IC50": "< 10"}
{"smiles": "COc1ccc(OC(=O)NCCCCCCn2c(C)nc(-c3ccccc3)c2-c2ccccc2)cc1", "note": "[Example 13, [6-(2-Methyl-4,5-diphenyl-imidazol-1-yl)-hexyl]-carbamic acid 4-methoxy-phenyl ester]", "IC50": "10 to 100"}
{"smiles": "Cc1ccccc1OC(=O)NCCCCCCn1c(C)nc(-c2ccccc2)c1-c1ccccc1", "note": "[Example 14, [6-(2-Methyl-4,5-diphenyl-imidazol-1-yl)-hexyl]-carbamic acid o-tolyl ester]", "IC50": "< 10"}
{"smiles": "Cc1nc(-c2ccccc2)c(-c2ccccc2)n1CCCCCCNC(=O)Oc1ccc(C#N)cc1", "note": "[Example 15, [6-(2-Methyl-4,5-diphenyl-imidazol-1-yl)-hexyl]-carbamic acid 4-cyano-phenyl ester]", "IC50": "10 to 100"}
{"smiles": "COc1cccc(OC)c1OC(=O)NCCCCCCn1c(C)nc(-c2ccccc2)c1-c1ccccc1", "note": "[Example 16, [6-(2-Methyl-4,5-diphenyl-imidazol-1-yl)-hexyl]-carbamic acid 2,6-dimethoxy-phenyl ester]", "IC50": "100 to 1000"}
{"smiles": "COc1ccccc1OC(=O)NCCCCCCn1c(C)nc(-c2ccccc2)c1-c1ccccc1", "note": "[Example 17, [6-(2-Methyl-4,5-diphenyl-imidazol-1-yl)-hexyl]-carbamic acid 2-methoxy-phenyl ester]", "IC50": "100 to 1000"}
{"smiles": "COC(=O)NCCCCCCCn1c(C)nc(-c2ccccc2)c1-c1ccccc1", "note": "[Example 18, [7-(2-Methyl-4,5-diphenyl-imidazol-1-yl)-heptyl]-carbamic acid methyl ester]", "IC50": "100 to 1000"}
{"smiles": "CCOC(=O)NCCCCCCCn1c(C)nc(-c2ccccc2)c1-c1ccccc1", "note": "[Example 19, [7-(2-Methyl-4,5-diphenyl-imidazol-1-yl)-heptyl]-carbamic acid ethyl ester]", "IC50": "10 to 100"}
{"smiles": "Cc1nc(-c2ccccc2)c(-c2ccccc2)n1CCCCCCCNC(=O)Oc1ccccc1", "note": "[Example 20, [7-(2-Methyl-4,5-diphenyl-imidazol-1-yl)-heptyl]-carbamic acid phenyl ester]", "IC50": "< 10"}
{"smiles": "Cc1nc(-c2ccccc2)c(-c2ccccc2)n1CCCCCCCNC(=O)Oc1ccc(F)cc1", "note": "[Example 21, [7-(2-Methyl-4,5-diphenyl-imidazol-1-yl)-heptyl]-carbamic acid 4-fluoro-phenyl ester]", "IC50": "10 to 100"}
{"smiles": "Cc1nc(-c2ccccc2)c(-c2ccccc2)n1CCCCCCCNC(=O)Oc1ccccc1F", "note": "[Example 22, [7-(2-Methyl-4,5-diphenyl-imidazol-1-yl)-heptyl]-carbamic acid 2-fluoro-phenyl ester]", "IC50": "< 10"}
{"smiles": "Cc1nc(-c2ccccc2)c(-c2ccccc2)n1CCCCCCCNC(=O)Oc1ccc(F)cc1F", "note": "[Example 23, [7-(2-Methyl-4,5-diphenyl-imidazol-1-yl)-heptyl]-carbamic acid 2,4-difluoro-phenyl ester]", "IC50": "10 to 100"}
{"smiles": "Cc1nc(-c2ccccc2)c(-c2ccccc2)n1CCCCCCCNC(=O)Oc1ccc(Cl)cc1", "note": "[Example 24, [7-(2-Methyl-4,5-diphenyl-imidazol-1-yl)-heptyl]-carbamic acid 4-chloro-phenyl ester]", "IC50": "< 10"}
{"smiles": "COc1ccc(OC(=O)NCCCCCCCn2c(C)nc(-c3ccccc3)c2-c2ccccc2)cc1", "note": "[Example 25, [7-(2-Methyl-4,5-diphenyl-imidazol-1-yl)-heptyl]-carbamic acid 4-methoxy-phenyl ester]", "IC50": "10 to 100"}
{"smiles": "Cc1ccccc1OC(=O)NCCCCCCCn1c(C)nc(-c2ccccc2)c1-c1ccccc1", "note": "[Example 26, [7-(2-Methyl-4,5-diphenyl-imidazol-1-yl)-heptyl]-carbamic acid o-tolyl ester]", "IC50": "10 to 100"}
{"smiles": "Cc1nc(-c2ccccc2)c(-c2ccccc2)n1CCCCCCCNC(=O)Oc1ccc(C#N)cc1", "note": "[Example 27, [7-(2-Methyl-4,5-diphenyl-imidazol-1-yl)-heptyl]-carbamic acid 4-cyano-phenyl ester]", "IC50": "< 10"}
{"smiles": "COc1cccc(OC)c1OC(=O)NCCCCCCCn1c(C)nc(-c2ccccc2)c1-c1ccccc1", "note": "[Example 28, [7-(2-Methyl-4,5-diphenyl-imidazol-1-yl)-heptyl]-carbamic acid 2,6-dimethoxy-phenyl ester]", "IC50": "100 to 1000"}
{"smiles": "COc1ccccc1OC(=O)NCCCCCCCn1c(C)nc(-c2ccccc2)c1-c1ccccc1", "note": "[Example 29, [7-(2-Methyl-4,5-diphenyl-imidazol-1-yl)-heptyl]-carbamic acid 2-methoxy-phenyl ester]", "IC50": "10 to 100"}
{"smiles": "CCOC(=O)NCCCCCn1c(C)nc(-c2ccccc2)c1-c1ccccc1", "note": "[Example 30, [5-(2-Methyl-4,5-diphenyl-imidazol-1-yl)-pentyl]-carbamic acid ethyl ester]", "IC50": "100 to 1000"}
{"smiles": "Cc1nc(-c2ccccc2)c(-c2ccccc2)n1CCCCCNC(=O)Oc1ccccc1", "note": "[Example 31, [5-(2-Methyl-4,5-diphenyl-imidazol-1-yl)-pentyl]-carbamic acid phenyl ester]", "IC50": "10 to 100"}
{"smiles": "Cc1nc(-c2ccccc2)c(-c2ccccc2)n1CCCCCNC(=O)Oc1ccc(F)cc1", "note": "[Example 32, [5-(2-Methyl-4,5-diphenyl-imidazol-1-yl)-pentyl]-carbamic acid 4-fluoro-phenyl ester]", "IC50": "10 to 100"}
{"smiles": "Cc1nc(-c2ccccc2)c(-c2ccccc2)n1CCCCCNC(=O)Oc1ccc(F)cc1F", "note": "[Example 33, [5-(2-Methyl-4,5-diphenyl-imidazol-1-yl)-pentyl]-carbamic acid 2,4-difluoro-phenyl ester]", "IC50": "10 to 100"}
{"smiles": "Cc1nc(-c2ccccc2)c(-c2ccccc2)n1CCCCCNC(=O)Oc1ccccc1F", "note": "[Example 34, [5-(2-Methyl-4,5-diphenyl-imidazol-1-yl)-pentyl]-carbamic acid 2-fluoro-phenyl ester]", "IC50": "10 to 100"}
{"smiles": "Cc1nc(-c2ccccc2)c(-c2ccccc2)n1CCCCCNC(=O)Oc1ccc(Cl)cc1", "note": "[Example 35, [5-(2-Methyl-4,5-diphenyl-imidazol-1-yl)-pentyl]-carbamic acid 4-chloro-phenyl ester]", "IC50": "10 to 100"}
